Measured values reported in patent publication US20170233413A1, “SUBSTITUTED ANNULATED PYRIMIDINES AND USE THEREOF” (Bayer Pharma Aktiengesellschaft, priority 2014, published 2017).

Experiments:
[1] = target: T1, recombinant guanylate cyclase reporter cell line (Rattus norvegicus, UniProt P19686+P20595); assay: Effect on a recombinant guanylate cyclase reporter cell line; format: cell-based; details: MEC = minimum effective concentration; in some cases means of individual determinations
T1 construct: expressed in transfected cells
T1 sequence (P19686 1-690): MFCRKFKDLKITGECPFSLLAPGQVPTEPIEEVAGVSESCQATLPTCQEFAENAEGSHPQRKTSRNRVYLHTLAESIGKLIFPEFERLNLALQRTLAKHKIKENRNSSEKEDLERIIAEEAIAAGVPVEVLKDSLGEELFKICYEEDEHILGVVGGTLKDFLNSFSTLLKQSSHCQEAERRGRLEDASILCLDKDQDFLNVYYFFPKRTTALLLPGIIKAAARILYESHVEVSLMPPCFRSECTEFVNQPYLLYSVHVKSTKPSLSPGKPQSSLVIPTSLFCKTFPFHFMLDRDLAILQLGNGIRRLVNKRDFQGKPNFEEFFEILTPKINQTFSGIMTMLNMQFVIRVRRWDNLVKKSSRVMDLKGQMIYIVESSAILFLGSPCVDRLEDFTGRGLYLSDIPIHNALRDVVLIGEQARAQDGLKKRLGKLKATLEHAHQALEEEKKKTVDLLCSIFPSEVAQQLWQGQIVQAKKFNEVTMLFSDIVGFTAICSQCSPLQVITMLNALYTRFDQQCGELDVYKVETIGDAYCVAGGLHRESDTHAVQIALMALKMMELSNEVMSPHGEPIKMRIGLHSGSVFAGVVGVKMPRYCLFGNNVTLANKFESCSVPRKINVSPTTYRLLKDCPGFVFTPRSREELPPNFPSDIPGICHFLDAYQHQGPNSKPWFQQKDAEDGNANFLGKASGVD
T1 sequence (P20595 1-619): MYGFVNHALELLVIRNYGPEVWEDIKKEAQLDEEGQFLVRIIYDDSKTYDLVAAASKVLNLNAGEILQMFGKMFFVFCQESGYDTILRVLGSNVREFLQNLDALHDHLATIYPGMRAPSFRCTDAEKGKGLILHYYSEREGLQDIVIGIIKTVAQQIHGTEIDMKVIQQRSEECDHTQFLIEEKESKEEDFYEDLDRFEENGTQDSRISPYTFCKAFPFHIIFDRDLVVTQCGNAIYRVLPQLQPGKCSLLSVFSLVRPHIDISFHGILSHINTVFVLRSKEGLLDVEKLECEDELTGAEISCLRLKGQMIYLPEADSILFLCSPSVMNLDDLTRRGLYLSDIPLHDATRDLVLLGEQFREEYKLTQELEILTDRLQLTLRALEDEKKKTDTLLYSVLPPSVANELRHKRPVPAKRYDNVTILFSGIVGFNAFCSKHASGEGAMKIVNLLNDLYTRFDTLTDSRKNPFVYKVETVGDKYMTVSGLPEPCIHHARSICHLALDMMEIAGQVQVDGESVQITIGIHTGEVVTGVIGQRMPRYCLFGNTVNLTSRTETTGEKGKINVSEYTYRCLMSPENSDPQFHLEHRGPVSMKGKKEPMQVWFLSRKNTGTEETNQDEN
Method in brief: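 Cellular activity measured in a recombinant rat soluble guanylate cyclase reporter cell line. Values are minimum effective concentration (MEC), some given as means of individual determinations.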

[2] = target: T2, human phosphodiesterase 5 (PDE 5) (Homo sapiens, UniProt O76074); assay: Inhibition of human phosphodiesterase 5 (PDE 5); format: biochemical; details: PDE 5 preparation from human platelets; in some cases means of individual determinations
T2 construct: PDE 5 preparations are obtained from human platelets by disruption; from tissue; host or cells: human platelets
Method in brief: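 Enzyme partially purified from human platelets by Mono Q ion exchange, diluted so that under 70% of substrate converts. [8-3H]cGMP at 0.025 μCi per well in Tris pH 7.5 with MgCl2/EDTA, 60 min at room temperature, yttrium SPA bead read-out. Final compound concentrations 4–0.0018 μM; IC50 from concentration–inhibition plot.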

| MEC [1] [µM] | IC50 [2] [nM] | Compound |
| --- | --- | --- |
| 0.3 | 25 | CC1(C)C(=O)Nc2nc(-c3nn(Cc4ccccc4F)c4ncccc34)nc(C(=O)Nc3cnccn3)c21 [Example 108, 2-[1-(2-fluorobenzyl)-1H-pyrazolo[3,4-b]pyridin-3-yl]-5,5-dimethyl-6-oxo-N-(pyrazin-2-yl)-6,7-dihydro-5H-pyrrolo[2,3-d]pyrimidine-4-carboxamide] |
| 0.1 | 20 | CC(C)CNC(=O)c1nc(-c2nn(Cc3ccccc3F)c3ncccc23)nc2c1C(C)(C)C(=O)N2 [Example 122, 2-[1-(2-fluorobenzyl)-1H-pyrazolo[3,4-b]pyridin-3-yl]-5,5-dimethyl-N-(2-methylpropyl)-6-oxo-6,7-dihydro-5H-pyrrolo[2,3-d]pyrimidine-4-carboxamide] |
| 0.3 | 2 | CC(C)(O)CNC(=O)c1nc(-c2nn(Cc3ccccc3F)c3ncccc23)nc2c1C(C)(C)C(=O)N2 [Example 25] |
| 3 | 230 | CC1(C(F)(F)F)C(=O)Nc2nc(-c3nn(Cc4ncccc4F)c4ncc(F)cc34)nc(C(N)=O)c21 (racemic) [Example 21, rac-2-{5-Fluoro-1-[(3-fluoropyridin-2-yl)methyl]-1H-pyrazolo[3,4-b]pyridin-3-yl}-5-methyl-6-oxo-5-(trifluoromethyl)-6,7-dihydro-5H-pyrrolo[2,3-d]pyrimidine-4-carboxamide] |
| 0.3 | 6 | CC1(C)C(=O)Nc2nc(-c3nn(Cc4ccccc4F)c4ncccc34)nc(C(=O)NC3CCCC3)c21 [Example 126, N-cyclopentyl-2-[1-(2-fluorobenzyl)-1H-pyrazolo[3,4-b]pyridin-3-yl]-5,5-dimethyl-6-oxo-6,7-dihydro-5H-pyrrolo[2,3-d]pyrimidine-4-carboxamide] |
| 0.1 | 26 | CCOCCCNC(=O)c1nc(-c2nn(Cc3ccccc3F)c3ncccc23)nc2c1C(C)(C)C(=O)N2 [Example 123, N-(3-ethoxypropyl)-2-[1-(2-fluorobenzyl)-1H-pyrazolo[3,4-b]pyridin-3-yl]-5,5-dimethyl-6-oxo-6,7-dihydro-5H-pyrrolo[2,3-d]pyrimidine-4-carboxamide] |
| 0.1 | 11 | CCC(C)NC(=O)c1nc(-c2nn(Cc3ccccc3F)c3ncccc23)nc2c1C(C)(C)C(=O)N2 (racemic) [Example 63, rac-N-(butan-2-yl)-2-[1-(2-fluorobenzyl)-1H-pyrazolo[3,4-b]pyridin-3-yl]-5,5-dimethyl-6-oxo-6,7-dihydro-5H-pyrrolo[2,3-d]pyrimidine-4-carboxamide] |
| 0.3 | 130 | CC1(C)C(=O)Nc2nc(-c3nn(Cc4ccccc4F)c4cc(Cl)ccc34)nc(C(=O)NCCC(F)(F)F)c21 [Example 45] |
| 0.3 | 24 | Cn1ccc(NC(=O)c2nc(-c3nn(Cc4ccccc4F)c4ncccc34)nc3c2C(C)(C)C(=O)N3)n1 [Example 70, 2-[1-(2-fluorobenzyl)-1H-pyrazolo[3,4-b]pyridin-3-yl]-5,5-dimethyl-N-(1-methyl-1H-pyrazol-3-yl)-6-oxo-6,7-dihydro-5H-pyrrolo[2,3-d]pyrimidine-4-carboxamide] |
| 0.03 | 13 | CC1(C)C(=O)Nc2nc(-c3nn(Cc4ccccc4F)c4ncc(F)cc34)nc(C(N)=O)c21 [Example 2, 2-[5-Fluoro-1-(2-fluorobenzyl)-1H-pyrazolo[3,4-b]pyridin-3-yl]-5,5-dimethyl-6-oxo-6,7-dihydro-5H-pyrrolo[2,3-d]pyrimidine-4-carboxamide] |
| 0.1 | 8.6 | CC1(C)C(=O)Nc2nc(-c3nn(Cc4ccccc4F)c4ncccc34)nc(C(=O)NC3(C4CC4)CC3)c21 [Example 82, N-[1,1′-bi(cyclopropyl)-1-yl]-2-[1-(2-fluorobenzyl)-1H-pyrazolo[3,4-b]pyridin-3-yl]-5,5-dimethyl-6-oxo-6,7-dihydro-5H-pyrrolo[2,3-d]pyrimidine-4-carboxamide] |
| 0.1 | 18 | C=CCONC(=O)c1nc(-c2nn(Cc3ccccc3F)c3ncccc23)nc2c1C(C)(C)C(=O)N2 [Example 62, 2-[1-(2-fluorobenzyl)-1H-pyrazolo[3,4-b]pyridin-3-yl]-5,5-dimethyl-6-oxo-N-(prop-2-en-1-yloxy)-6,7-dihydro-5H-pyrrolo[2,3-d]pyrimidine-4-carboxamide] |
| 2 | 81 | CC1(C)C(=O)Nc2nc(-c3nn(Cc4ncccc4F)c4ncc(F)cc34)nc(C(N)=O)c21 [Example 8, 2-{5-fluoro-1-[(3-fluoropyridin-2-yl)methyl]-1H-pyrazolo[3,4-b]pyridin-3-yl}-5,5-dimethyl-6-oxo-6,7-dihydro-5H-pyrrolo[2,3-d]pyrimidine-4-carboxamide] |
| 0.1 | 14 | COCCCNC(=O)c1nc(-c2nn(Cc3ccccc3F)c3ncccc23)nc2c1C(C)(C)C(=O)N2 [Example 90, 2-[1-(2-fluorobenzyl)-1H-pyrazolo[3,4-b]pyridin-3-yl]-N-(3-methoxypropyl)-5,5-dimethyl-6-oxo-6,7-dihydro-5H-pyrrolo[2,3-d]pyrimidine-4-carboxamide] |
| 1 | 48 | CC1(C)C(=O)Nc2nc(-c3nn(Cc4ccccc4F)c4ncccc34)nc(C(=O)NCCC(N)=O)c21 [Example 95, N-(3-amino-3-oxopropyl)-2-[1-(2-fluorobenzyl)-1H-pyrazolo[3,4-b]pyridin-3-yl]-5,5-dimethyl-6-oxo-6,7-dihydro-5H-pyrrolo[2,3-d]pyrimidine-4-carboxamide] |
| 0.1 | 26 | CC1(C)C(=O)Nc2nc(-c3nn(Cc4ccccc4F)c4ncccc34)nc(C(=O)NCCC(F)(F)F)c21 [Example 74, 2-[1-(2-fluorobenzyl)-1H-pyrazolo[3,4-b]pyridin-3-yl]-5,5-dimethyl-6-oxo-N-(3,3,3-trifluoropropyl)-6,7-dihydro-5H-pyrrolo[2,3-d]pyrimidine-4-carboxamide] |
| 0.3 | 570 | Cc1nc2c(cc1F)c(-c1nc3c(c(C(N)=O)n1)C(C)(C(F)(F)F)C(=O)N3)nn2Cc1ncccc1F (racemic) [Example 18, rac-2-{5-Fluoro-1-[(3-fluoropyridin-2-yl)methyl]-6-methyl-1H-pyrazolo[3,4-b]pyridin-3-yl}-5-methyl-6-oxo-5-(trifluoromethyl)-6,7-dihydro-5H-pyrrolo[2,3-d]pyrimidine-4-carboxamide] |
| 1 | 74 | C[S+]([O-])CCNC(=O)c1nc(-c2nn(Cc3ccccc3F)c3ncccc23)nc2c1C(C)(C)C(=O)N2 (stereo not shown) [Example 64, 2-[1-(2-fluorobenzyl)-1H-pyrazolo[3,4-b]pyridin-3-yl]-5,5-dimethyl-N-[2-(methylsulfinyl)ethyl]-6-oxo-6,7-dihydro-5H-pyrrolo[2,3-d]pyrimidine-4-carboxamide] |
| 0.1 | 10 | CCNC(=O)c1nc(-c2nn(Cc3ccccc3F)c3ncccc23)nc2c1C(C)(C)C(=O)N2 [Example 129, N-ethyl-2-[1-(2-fluorobenzyl)-1H-pyrazolo[3,4-b]pyridin-3-yl]-5,5-dimethyl-6-oxo-6,7-dihydro-5H-pyrrolo[2,3-d]pyrimidine-4-carboxamide] |
| 0.1 | 11 | CC(NC(=O)c1nc(-c2nn(Cc3ccccc3F)c3ncccc23)nc2c1C(C)(C)C(=O)N2)C1CC1 (racemic) [Example 104, rac-N-(1-cyclopropylethyl)-2-[1-(2-fluorobenzyl)-1H-pyrazolo[3,4-b]pyridin-3-yl]-5,5-dimethyl-6-oxo-6,7-dihydro-5H-pyrrolo[2,3-d]pyrimidine-4-carboxamide] |
